In brackets after ≈: the same amount, converted by molar mass. Activity calls are given as the source filed them. No cut-off for these calls is given here.
tested on: Candida albicans; test: Antifungal activity against Candida albicans SC5314 up to 100 ug/ml after 48 hrs by microdilution assay; format: functional, organism-based

| SMILES | Activity |
| --- | --- |
| COc1cc([C@H](Cc2ccc(F)cc2)NC(C)=O)oc(=O)c1 | inactive |
| COc1cc([C@H](Cc2ccc(Cl)cc2)NC(C)=O)oc(=O)c1 | inactive |
| COc1cc([C@H](Cc2cccc(Cl)c2)NC(C)=O)oc(=O)c1 | inactive |
| COc1cc([C@H](Cc2ccc(C)cc2)NC(C)=O)oc(=O)c1 | inactive |
| COc1cc([C@H](Cc2ccccc2Cl)NC(C)=O)oc(=O)c1 | inactive |
| COc1cc([C@H](Cc2ccc(Br)cc2)NC(C)=O)oc(=O)c1 | inactive |
| COc1cc([C@H](Cc2ccccc2)NC(C)=O)oc(=O)c1 | inactive |

tested on: Aspergillus nidulans; test: Growth inhibition of Aspergillus nidulans at 0 to 300 ug/ml incubated for 4 days; format: functional, organism-based

| SMILES | growth inhibition (GI) |
| --- | --- |
| N[C@@H](Cc1ccccc1)c1cc(O)cc(=O)o1 | Active |

tested on: T47D; test: Growth inhibition of human T47D cells; format: functional, cell-based

| IC50 [µg/mL] | SMILES |
| --- | --- |
| 9.2 (≈ 32 µM) | COc1cc([C@H](Cc2ccccc2)NC(C)=O)oc(=O)c1 |

— ChEMBL document CHEMBL4613259, “Biosynthesis of Amino Acid Derived α-Pyrones by an NRPS-NRPKS Hybrid Megasynthetase in Fungi” (J Nat Prod, 2020)
